Source: ChEMBL document CHEMBL2311300, “Fragment-based design, synthesis, and biological evaluation of N-substituted-5-(4-isopropylthiophenol)-2-hydroxynicotinamide derivatives as novel Mcl-1 inhibitors” (Eur J Med Chem, 2013)

Experiments:
[1] = biological target: T1, Induced myeloid leukemia cell differentiation protein Mcl-1 (Homo sapiens, UniProt Q07820); assay: Inhibition of FAM-Bid peptide binding to Mcl1 (unknown origin) expressed in Escherichia coli BL21 by fluorescence polarization-based binding assay
[2] = biological target: T1, Induced myeloid leukemia cell differentiation protein Mcl-1; assay: Inhibition of biotin-Bim peptide binding to Mcl1 (unknown origin) expressed in Escherichia coli BL21 by ELISA
K562 = assay: Induction of apoptosis in Mcl1 dependent human K562 cells after 48 hrs by Annexin V staining based flow cytometry; type: functional, cell-based; settings: K562, 48 h
[3] = biological target: T1, Induced myeloid leukemia cell differentiation protein Mcl-1; assay: Binding affinity to Mcl1 (unknown origin) expressed in Escherichia coli BL21 by ITC assay
RS4-11 = assay: Induction of apoptosis in Bcl2 dependent human RS4:11 cells after 48 hrs by Annexin V staining based flow cytometry; type: functional, cell-based; settings: RS4-11, 48 h

T1 sequence (Q07820 whole entry): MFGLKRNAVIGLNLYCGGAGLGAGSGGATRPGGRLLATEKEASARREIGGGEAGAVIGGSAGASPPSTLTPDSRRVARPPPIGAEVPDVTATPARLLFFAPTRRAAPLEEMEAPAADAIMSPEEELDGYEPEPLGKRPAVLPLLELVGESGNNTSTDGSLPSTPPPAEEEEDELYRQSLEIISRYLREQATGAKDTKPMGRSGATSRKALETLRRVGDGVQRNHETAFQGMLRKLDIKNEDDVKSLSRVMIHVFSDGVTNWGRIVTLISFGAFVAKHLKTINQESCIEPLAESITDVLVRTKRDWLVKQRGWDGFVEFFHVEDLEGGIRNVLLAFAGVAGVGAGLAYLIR

Row | SMILES | IC50 ([1]; read-out: IC50) | Ki ([1]; read-out: Ki) | IC50 [2] | Ki [2] | other results
1 | N#Cc1cc(-c2ccccc2)c[nH]c1=O | 261 µM | 10.4 µM | – | – | –
2 | N#CC(C#N)=c1c(=O)c2cccc3cccc1c32 | 71.5 µM | 2.85 µM | – | – | –
3 | N#Cc1ccc[nH]c1=O | 2730 µM | 109 µM | – | – | –
4 | N#Cc1cc(-c2cccc3ccccc23)cnc1O | 158 µM | 6.32 µM | – | – | –
5 | N#Cc1cc(-c2ccc(Cl)cc2)c[nH]c1=O | 205 µM | 8.19 µM | – | – | –
6 | N#Cc1cc(-c2ccc(-c3ccccc3)cc2)cnc1O | 316 µM | 12.6 µM | – | – | –
7 | N#Cc1cc(Sc2ccccc2)c[nH]c1=O | 82.2 µM | 3.29 µM | – | – | –
8 | Cc1ccc(Sc2cnc(O)c(C#N)c2)cc1 | 63.1 µM | 2.52 µM | – | – | –
9 | CC(C)c1ccc(Sc2c[nH]c(=O)c(C#N)c2)cc1 | 21.5 µM | 0.86 µM | 0.89 µM | 0.891 µM | –
10 | CCC(C)(C)c1ccc(Sc2cnc(O)c(C#N)c2)cc1 | 178 µM | 7.09 µM | – | – | –
11 | N#Cc1cc(Sc2ccc(Br)cc2)c[nH]c1=O | 121 µM | 4.83 µM | – | – | –
12 | N#Cc1cc(Sc2ccc(N)cc2)c[nH]c1=O | 133 µM | 5.31 µM | – | – | –
13 | CC(C)c1ccc(Sc2cc(C#N)c(=O)n(Cc3ccccc3)c2)cc1 | 383 µM | 15.3 µM | – | – | –
14 | CC(C)NC(=O)c1cc(Sc2ccc(C(C)C)cc2)c[nH]c1=O | – | – | 0.501 µM | 0.468 µM | –
15 | CCCCNC(=O)c1cc(Sc2ccc(C(C)C)cc2)c[nH]c1=O | – | – | 0.241 µM | 0.224 µM | –
16 | CC(C)c1ccc(Sc2cnc(O)c(C(=O)NCc3ccccc3)c2)cc1 | – | – | 0.054 µM | 0.0537 µM | IC50 (K562): 0.84 µM; Kd [3]: 0.98 µM
17 | CC(C)c1ccc(Sc2cnc(O)c(C(=O)NCCCc3ccccc3)c2)cc1 | – | – | 0.192 µM | 0.191 µM | –
18 | COc1ccnc(O)c1C#N | – | – | – | – | IC50 [1]: Not Active; Ki [1]: Not Active
19 | N#CC1=C2C(=NC1=O)c1cccc3c(N4CCSCC4)ccc2c13 | – | – | 0.046 µM | 0.0457 µM | –
20 | CN(C)CC[C@H](CSc1ccccc1)Nc1ccc(S(=O)(=O)NC(=O)c2ccc(N3CCN(Cc4ccccc4-c4ccc(Cl)cc4)CC3)cc2)cc1[N+](=O)[O-] [ABT 737] | – | – | – | – | IC50 (K562): 16.4 µM; IC50 (RS4-11): 0.27 µM
21 | O=C1C(=O)c2cccc3cccc1c23 [ACENAPHTHOQUINONE] | 1420 µM | 57 µM | – | – | –
22 | Cc1cc2c(C(C)C)c(O)c(O)c(C=O)c2c(O)c1-c1c(C)cc2c(C(C)C)c(O)c(O)c(C=O)c2c1O [GOSSYPOL] | 4.8 µM | 0.19 µM | 0.17 µM | 0.214 µM | –
